Target: T1, DNA polymerase (Klenow Fragment) (Escherichia coli, UniProt P00582)
T1 construct: using a DNA polymerase (Klenow Fragment)
Experiment: terminal extension on a DNA template: substrate recognition by Klenow
Assay type: biochemical
Details: 3′-terminal extension on a DNA template
Experimental: An alternative approach to label RNAs with selenium is based on the RNA 3′-labeling method (FIG. 9). See ref. 33. After a long RNA is prepared by transcription using ordinary NTPs, α-Se-dNTPs is transferred to its 3′-terminus on a DNA template using a DNA polymerase (Klenow Fragment). […] Experiments also reveal that the number of incorporated dNTPs is dependent on the length of the overhanging nucleotides of the template, and the terminal extension reaction giving full-length product with high yields in the presence of high dNTP concentration. The products may be purified by any one of a variety of methods well known in the art, such as for example, preparative anion exchange HPLC, to single nucleotide resolution for RNA as long as 70 nucleotides. (Ref 34). This terminal transfer approach can be very useful for medium size RNAs (up to 80 nucleotides). An analogous approach can be used to prepare Se-DNAs.

T1 sequence (P00582 324-928): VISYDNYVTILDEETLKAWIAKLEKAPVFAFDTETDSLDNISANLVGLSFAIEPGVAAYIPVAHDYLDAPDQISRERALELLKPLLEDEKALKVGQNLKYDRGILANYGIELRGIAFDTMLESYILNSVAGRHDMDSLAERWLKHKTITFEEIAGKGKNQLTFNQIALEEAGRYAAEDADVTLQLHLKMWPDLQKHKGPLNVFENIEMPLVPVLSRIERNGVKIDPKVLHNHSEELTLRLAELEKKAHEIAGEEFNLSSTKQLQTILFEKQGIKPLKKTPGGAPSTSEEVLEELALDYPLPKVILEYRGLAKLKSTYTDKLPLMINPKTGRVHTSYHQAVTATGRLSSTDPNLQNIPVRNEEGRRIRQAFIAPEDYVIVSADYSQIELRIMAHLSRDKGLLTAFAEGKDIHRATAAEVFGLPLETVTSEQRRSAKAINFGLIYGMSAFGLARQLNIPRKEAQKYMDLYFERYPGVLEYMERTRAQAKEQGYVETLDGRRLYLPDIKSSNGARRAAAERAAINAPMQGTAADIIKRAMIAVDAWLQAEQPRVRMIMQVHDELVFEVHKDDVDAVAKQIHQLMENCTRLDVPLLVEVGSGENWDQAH

SMILES: Cc1cn(C2CC(O)C(COP(O)(=[Se])OP(=O)(O)OP(=O)(O)O)O2)c(=O)[nH]c1=O (stereo not drawn) [α-Se-TTP 24]
- recognition as a substrate by Klenow: recognized α-Se-TTP 24 as a substrate

— patent US7982030B2, “Synthesis of selenium-derivatized nucleosides, nucleotides, phosphoramidites, triphosphates and nucleic acids” (Georgia State University Research Foundation, Inc., priority 2001, dated 2011)
